Measured values taken from US20020094522A1, “Means and methods for monitoring non-nucleoside reverse transcriptase inhibitor antiretroviral therapy and guiding therapeutic decisions in the treatment of HIV/AIDS” (priority 2000, published 2002).
Entries after “also recorded” stand apart in the source; their conditions may differ.

How the values were obtained:
[1] = tested on: RTV-268 (patient sample 97-268; P236L); assay: Phenotypic susceptibility assay, RTV-268; assay type: cell-based, HIV-1; details: RTV-268 / patient 268
Description: (§1) The resistance test vectors containing a functional luciferase gene cassette were constructed and host cells were transfected with the resistance test vector DNA. The resistant test vectors contained patient-derived reverse transcriptase and protease sequences that were either susceptible or resistant to the antiretroviral agents, such as nucleoside reverse transcriptase inhibitors, non-nucleoside reverse transcriptase inhibitors and protease inhibitors. The resistance test vector viral particles produced by transfecting the resistance test vector DNA into host cells, either in the presence or absence of protease inhibitors, were used to infect target host cells grown either in the absence of NRTI or NNRTI or in the presence of increasing concentrations of the drug. The amount of luciferase activity produced in infected target host cells in the presence of drug was compared to the amount of luciferase produced in infected target host cells in the absence of drug. Drug resistance was measured as the amount of drug required to inhibit by 50% the luciferase activity detected in the absence of drug (inhibitory concentration 50%, IC50). The IC50 values were determined by plotting percent drug inhibition vs. log10 drug concentration.
(§2) Host cells were seeded in 10-cm-diameter dishes and were transfected several days after plating with resistance test vector plasmid DNA and the envelope expression vector. Transfections were performed using a calcium-phosphate precipitation procedure. The cell culture media containing the DNA precipitate was replaced with fresh medium, from one to 24 hours, after transfection. Cell culture media containing resistance test vector viral particles was harvested one to four days after transfection and was passed through a […] filter before being stored at −80° C. HIV capsid protein (p24) levels in the harvested cell culture media were determined by an EIA method as described by the manufacturer (SIAC; Frederick, Md.). Before infection, target cells (293 and 293/T) were plated in cell culture media. Control infections were performed using cell culture media from mock transfections (no DNA) or transfections containing the resistance test vector plasmid DNA without the envelope expression plasmid. One to three or more days after infection the media was removed and cell lysis buffer (Promega) was added to each well. […] The inhibitory effect of the drug was determined using the following equation: […]
(§3) where RLUluc [drug] is the relative light unit of luciferase activity in infected cells in the presence of drug and RLUluc is the Relative Light Unit of luciferase activity in infected cells in the absence of drug. IC50 values were obtained from the sigmoidal curves that were generated from the data by plotting the percent inhibition of luciferase activity vs. the log10 drug concentration.
A resistance test vector was constructed as described in Example 1 from a patient sample designated 97-268. […] Isolation of viral RNA and RT/PCR was used to generate a patient derived segment that comprised viral sequences coding for all of PR and amino acids 1-313 of RT. The patient derived segment was inserted into a indicator gene viral vector to generate a resistance test vector designated RTV-268. RTV-268 was then tested using the phenotypic susceptibility assay to determine accurately and quantitatively the level of susceptibility to a panel of anti-retroviral drugs. […] An IC50 was determined for each drug tested. Susceptibility of the patient virus to each drug was examined and compared to the susceptibility of a reference virus. […] The sample was examined further for genotypic changes associated with the pattern of susceptibility.

[2] = tested on: patient 487 virus (RT M184V, K103N); assay: Phenotypic susceptibility assay, patient 487; assay type: cell-based, HIV; details: patient 487, FIG. 4
Description: as §1, with “The amount of luciferase activity produced in infected target host cells in the presence of drug was compared to the amount of luciferase produced in infected target host cells in the absence of drug. Drug resistance was measured as the amount of drug required to inhibit by 50% the luciferase activity detected in the absence of drug (inhibitory concentration 50%, IC50).” left out
(§4) Host cells were seeded in 10-cm-diameter dishes and were transfected several days after plating with resistance test vector plasmid DNA and the envelope expression vector. […] HIV capsid protein (p24) levels in the harvested cell culture media were determined by an EIA method as described by the manufacturer (SIAC; Frederick, Md.). […] The inhibitory effect of the drug was determined using the following equation: […]

V106A-Y181C-RTV = assay: Phenotypic susceptibility assay, V106A-Y181C-RTV; assay type: cell-based, HIV-1; details: site directed mutant
Description: as §1
as §2, with “Md.).” for “Md.). Before infection, target cells (293 and 293/T) were plated in cell culture media. Control infections were performed using cell culture media from mock transfections (no DNA) or transfections containing the resistance test vector plasmid DNA without the envelope expression plasmid. One to three or more days after infection the media was removed and cell lysis buffer (Promega) was added to each well.”

Y181C-F227L-RTV = assay: Phenotypic susceptibility assay, Y181C-F227L-RTV; assay type: cell-based, HIV-1; details: values <1 = increased susceptibility
Description: as §1
as §2, with “Md.).” for “Md.). Before infection, target cells (293 and 293/T) were plated in cell culture media. Control infections were performed using cell culture media from mock transfections (no DNA) or transfections containing the resistance test vector plasmid DNA without the envelope expression plasmid. One to three or more days after infection the media was removed and cell lysis buffer (Promega) was added to each well.”

[3] = tested on: RTV-1058 Clone 10 (L100I, K103N and Y188L); assay: Phenotypic susceptibility assay, RTV-1058 clone 10; assay type: cell-based, HIV-1
Method: The resistance test vectors containing a functional luciferase gene cassette were constructed and host cells were transfected with the resistance test vector DNA. The resistant test vectors contained patient-derived reverse transcriptase and protease sequences that were either susceptible or resistant to the antiretroviral agents, such as nucleoside reverse transcriptase inhibitors, non-nucleoside reverse transcriptase inhibitors and protease inhibitors. […] The IC50 values were determined by plotting percent drug inhibition vs. log10 drug concentration.
as §4
A resistance test vector was constructed as described in Example 1 from a patient sample designated 98-1058. […] An IC50 was determined for the resistance test vector pool for each drug tested.

[4] = tested on: V189L-RTV (HIV reverse transcriptase V189L); assay: Phenotypic susceptibility assay, V189L-RTV; assay type: cell-based, HIV-1; details: V189-RTV (V189L), site directed mutant
Description: as §1
as §2, with “Md.).” for “Md.). Before infection, target cells (293 and 293/T) were plated in cell culture media. Control infections were performed using cell culture media from mock transfections (no DNA) or transfections containing the resistance test vector plasmid DNA without the envelope expression plasmid. One to three or more days after infection the media was removed and cell lysis buffer (Promega) was added to each well.”

[5] = tested on: RTV-1057 (patient sample 98-1057); assay: Phenotypic susceptibility assay, RTV-1057; assay type: cell-based, HIV-1; details: RTV-1057, patient-derived pool
Method: Transfections were performed using a calcium-phosphate precipitation procedure. […] Cell lysates were assayed for luciferase activity (FIG. 3).
The drug inhibition curves are shown in (FIG. 3).
A resistance test vector was constructed as described in Example 1 from a patient sample designated 98-1057. This patient had been previously treated with ddI, d4T, AZT, and 3TC (NRTIs), saquinavir and indinavir (PRIs) and delavirdine (an NNRTI). Isolation of viral RNA and RT/PCR was used to generate a patient derived segment that comprised viral sequences coding for all of PR and aa 1-313 RT. The PDS was inserted into an indicator gene viral vector to generate resistance test vector designated RTV-1057. RTV-1057 was then tested in a phenotypic assay to determine accurately and quantitatively the level of susceptibility to a panel of anti-retroviral drugs. […] An IC50 was determined for the resistance test vector pool for each drug tested. The pattern of susceptibility to all of the drugs tested was examined and compared to known patterns of susceptibility.

[6] = tested on: V108I -RTV (HIV reverse transcriptase V108I)
Description: as §1, §2, §3

[7] = tested on: Y188C-RTV (HIV reverse transcriptase Y188C)
Description: as §1, §2, §3

[8] = tested on: A98G-RTV (HIV reverse transcriptase A98G)
Description: as §1, §2, §3

Y181C-A98G-RTV = tested on: Y181C-A98G-RTV
Description: as §1, §2, §3

Compound | susceptibility/resistance compared to reference virus [1] | susceptibility/resistance profile [2] | fold loss of susceptibility compared to wild type control RTV (V106A-Y181C-RTV) | fold change in susceptibility compared to wild type control RTV (Y181C-F227L-RTV) [fold] | fold loss of susceptibility (IC50) [3] | fold change in susceptibility compared to wild type control RTV [4] [fold] | fold decrease in susceptibility (IC50) [5] [fold] | fold change in susceptibility compared to wild type control RTV [6] [fold] | fold loss of susceptibility compared to wild type control RTV [7] [fold] | fold loss of susceptibility compared to wild type control RTV [8] [fold] | fold loss of susceptibility compared to wild type control RTV (Y181C-A98G-RTV)
CC(C)Nc1cccnc1N1CCN(C(=O)c2cc3cc(NS(C)(=O)=O)ccc3[nH]2)CC1 [delavirdine] | resistant to delavirdine; also recorded: phenotypic resistance to delavirdine | increased resistance | 100 fold | 0.89 | greater than 250 fold | 1.8 | 35 | 1.3 | 3 | 3 | 240 fold
O=C1Nc2ccc(Cl)cc2[C@@](C#CC2CC2)(C(F)(F)F)O1 [efavirenz] | – | – | 4 fold | 0.99 | – | 1.3 | – | 1.7 | 20 | 3 | 7 fold
Cc1ccnc2c1NC(=O)c1cccnc1N2C1CC1 [nevirapine] | no change in nevirapine susceptibility; also recorded: nevirapine susceptibility was the same as wild type | increased resistance | greater than 800 fold | 285 | greater than 800 fold | 1.3 | 610 | 3 | 30 | 8 | greater than 800 fold
